Experimental data taken from US20220281865A1, “DIHYDROPYRIMIDINE DERIVATIVES AND USES THEREOF IN THE TREATMENT OF HBV INFECTION OR OF HBV-INDUCED DISEASES” (Janssen Sciences Ireland Unlimited Company, priority 2019, published 2022).

What was measured:
HBV = assay: Anti-HBV activity in HepG2.2.15 cells (HBV DNA in culture medium by qPCR); assay type: cell-based; conditions: Hepatitis B virus, 144 h, 6 days treatment
Procedure: (§1) HepG2.2.15 (the HepG2.2.15 cell line can be produced by transfection of the HepG2 cell line as described in Sells, Chen, and Acs 1987 (Proc. Natl. Acad. Sci. USA 84: 1005-1009), and the HepG2 cell line is available from ATCC® under number HB-8065™)
(§2) HepG2.2.15 cells were plated into 96-well plate in 2% FBS culture medium at the density of 40,000 cells/well and 5,000 cells/well for HBV inhibitory activity and cytotoxicity determination, respectively. After incubation at 37° C., 5% CO2 overnight, cells were treated with medium containing compounds for 6 days with medium and compounds refreshed after 3 days of treatment. Each compound was tested in a 1:3 serial dilutions at 8 different concentrations in triplicate. The highest concentration of the compounds was 10 uM or 1 uM for anti-HBV activity assay and 100 uM for cytotoxicity determination.
The change of HBV DNA level induced by the compounds was assessed by quantitative real-time polymerase chain reaction (qPCR). Briefly, the HBV DNA in the culture medium was extracted using QIAamp 96 DNA Blood Kit according to the manual and then quantified by real-time PCR assay using the primers and probe in the table 1 below.
(§3) EC50 and CC50 values are calculated by the GRAPHPAD PRISM software.

[1] = Cytotoxicity determination in HepG2.2.15 cells (CCK-8 cell viability); assay type: cell-based; conditions: human, 6 days treatment, CCK-8 assay
Procedure: as §1, §2
Cell viability was determined by CCK-8 assay. After 6 days of compounds treatment, 20 μl CCK-8 reagents were added to each well of cytotoxicity assay plates. Cell plates were incubated at 37° C., 5% CO2 for 2.5 h. The absorbance at 450 nm wavelength and the absorbance at 630 nm wavelength as reference was measured.
as §3

SMILES	EC50 (HBV) [µM]	CC50 at 6 days [1] [µM]
CCOC(=O)C1=C(CN2CC(F)(F)[C@H]3CCN(C(=O)C(C)(C)C(=O)O)C[C@H]32)NC(c2nccs2)=N[C@H]1c1cccc(F)c1C (single isomer, unassigned) [Compound I-3, 3-((3aS*,7aS*)-1-(((S)-5-(ethoxycarbonyl)-6-(3-fluoro-2-methylphenyl)-2-(thiazol-2-yl)-3,6-dihydropyrimidin-4-yl)methyl)-3,3-difluorohexahydro-1H-pyrrolo[2,3-c]pyridin-6(2H)-yl)-2,2-dimethyl-3-oxopropanoic acid]	0.21	30
CCOC(=O)C1=C(CN2CC(F)(F)[C@H]3C(=O)N(CC(C)(C)C(=O)O)CC[C@H]32)NC(c2nccs2)=N[C@H]1c1cccc(F)c1C (single isomer, unassigned) [Compound I-5, 3-((3aR*,7aR*)-1-(((S)-5-(ethoxycarbonyl)-6-(3-fluoro-2-methylphenyl)-2-(thiazol-2-yl)-3,6-dihydropyrimidin-4-yl)methyl)-3,3-difluoro-4-oxohexahydro-1H-pyrrolo[3,2-c]pyridin-5(6H)-yl)-2,2-dimethylpropanoic acid]	0.048	47.1
CCOC(=O)C1=C(CN2CC(F)(F)[C@H]3CN(CC(C)(C)C(=O)O)CC[C@H]32)NC(c2nccs2)=N[C@H]1c1cccc(F)c1C (single isomer, unassigned) [Compound I-6, 3-((3aS*,7aR*)-1-(((S)-5-(ethoxycarbonyl)-6-(3-fluoro-2-methylphenyl)-2-(thiazol-2-yl)-3,6-dihydropyrimidin-4-yl)methyl)-3,3-difluorohexahydro-1H-pyrrolo[3,2-c]pyridin-5(6H)-yl)-2,2-dimethylpropanoic acid]	0.081	43.4
CCOC(=O)C1=C(CN2CC(F)(F)[C@H]3CN(C(=O)C(C)(C)C(=O)O)CC[C@H]32)NC(c2nccs2)=N[C@H]1c1cccc(F)c1C [Compound I-4, 3-((cis)-1-(((S)-5-(ethoxycarbonyl)-6-(3-fluoro-2-methylphenyl)-2-(thiazol-2-yl)-3,6-dihydropyrimidin-4-yl)methyl)-3,3-difluorohexahydro-1H-pyrrolo[3,2-c]pyridin-5(6H)-yl)-2,2-dimethyl-3-oxopropanoic acid]	0.081	34.4
CCOC(=O)C1=C(CN2CC(F)(F)[C@H]3CC(=O)N(CC(C)(C)C(=O)O)C[C@H]32)NC(c2nccs2)=N[C@H]1c1cccc(F)c1C (single isomer, unassigned) [Compound I-2, 3-((3aS*,7aS*)-1-(((S)-5-(ethoxycarbonyl)-6-(3-fluoro-2-methylphenyl)-2-(thiazol-2-yl)-3,6-dihydropyrimidin-4-yl)methyl)-3,3-difluoro-5-oxohexahydro-1H-pyrrolo[2,3-c]pyridin-6(2H)-yl)-2,2-dimethylpropanoic acid]	0.034	50.4
CCOC(=O)C1=C(CN2CC(F)(F)[C@H]3CCN(CC(C)(C)C(=O)O)C(=O)[C@H]32)NC(c2nccs2)=N[C@H]1c1cccc(F)c1C (single isomer, unassigned) [Compound I-1, 3-((3aS*,7aS*)-1-(((S)-5-(ethoxycarbonyl)-6-(3-fluoro-2-methylphenyl)-2-(thiazol-2-yl)-3,6-dihydropyrimidin-4-yl)methyl)-3,3-difluoro-7-oxohexahydro-1H-pyrrolo[2,3-c]pyridin-6(2H)-yl)-2,2-dimethylpropanoic acid]	0.06	32
